This is an account of results in US7683040B2, “Intranasal formulation of rotigotine” (SRZ Properties, Inc., priority 2003, dated 2010).

The nature of data set [1]: (maximum) solubility in aqueous solution with α- or β-cyclodextrin, isocratic HPLC. Format: physicochemical. Conditions: aqueous solution and aqueous solutions containing α- or β-cyclodextrin. On the procedure:
The concentration was determined by isocratic HPLC analysis. HPLC column LiChroCART 75×4 mm, Superspher 60 RP-select B 5 μm (Merck), column temperature: 30° C., mobile phase: water/acetonitrile/methane sulfonic acid (65/35/0.05 v/v/v), flow rate: 2 mL/min, injection volume: 50 μl, detection at 220 nm, retention time approx. 1.5 min. The concentration was determined by use of an external reference solution with known concentration.

Data set [2] in a line: comparative storage test in aqueous rotigotine solution with/without α-cyclodextrin. Format: physicochemical. Conditions: solution of 1.6 mg/ml with α-cyclodextrin, storage at 60° C. for 8 weeks. The source says:
The stabilizing effect of α-cyclodextrin becomes also apparent from a comparative test in an aqueous rotigotine solution.

A short description of data set [3]: in-vitro permeation assay through nasal mucosa. Format: in vitro ADME, cattle. The text has this:
The intranasal formulation according to the present invention may preferably further contain a viscosity-enhancing substance. Glycerol and carboxymethylcellulose (CMC) are particularly useful as viscosity enhancers, but the present invention is not limited thereto. Glycerol is particularly preferred as it also has a soothing effect on the nasal mucosa. The viscosity of the intranasal formulations of the present invention should preferably be between 0.8 and 1.5 mm^2/s, most preferably around 1.2 mm^2/s. The viscosity can be determined by an Ubbelohde capillary viscosimeter with suspending ball-level for the determination of kinematic viscosity according to DIN 51562, part 1.
The pH-value of the formulation of the present invention should preferably in the range of 4.5 to 6.5, more preferably around 5.8±0.3. […] The pH value of the intranasal formulation can be adjusted during or after its preparation with a pharmaceutically acceptable acid or base. Most preferably, citric acid is used for this purpose.

The conditions of data set [4]: rat, cited from earlier work.
The conditions of data set [5]: cited from earlier work.
Another data set concerns cilia. The settings on record: cited from earlier work.

As for `CCCN(CCc1cccs1)[C@H]1CCc2c(O)cccc2C1` [Rotigotine base, 5,6,7,8-tetrahydro-6-[propyl-[2-(2-thienyl)ethyl]amino]-1-naphthalenol], the “solubility (in words)” value in data set [1] is listed as “practically insoluble”. Besides, the “decrease in the rotigotine concentration” value in data set [2] was -0.07 mg/mL. Also, the “rotigotine uptake through nasal mucosa” value in data set [3] (formulation pH 4.5) and in data set [3] (formulation pH 6.5) was “significantly lower rotigotine uptake” in each case. For the same molecule, the “drug uptake through nasal mucosa” value in data set [3] (formulation pH 5.8) is “optimal drug uptake”. Moreover, the “uptake of rotigotine through the nasal mucosa” value in data set [3] (glycerol in the formulation) is “increase the uptake”. In addition, the bioavailability entry in data set [4] (buccal, nasal or rectal administration compared with oral dosing, solution in 1:1 PEG 400 and water) was “improved bioavailability”. Besides, the “bioavailability for the nasal dosing” value in data set [4] (compared with results described for other lipophilic drugs) is “somewhat disappointing”.

Consider `CN1CCc2cccc3c2[C@H]1Cc1ccc(O)c(O)c1-3` [apomorphine], for which the oxidation in solution result in data set [5] is “subject to rapid oxidation”.

benzalkonium chloride: the ciliary toxicity result in the data set on cilia is reported as “significant ciliary toxicity”.
